Test results reported in publication PMC9115709, “TIMP‐1‐expressing breast tumor spheroids for the evaluation of drug penetration and efficacy” (Bioengineering & Translational Medicine, 2021).
pIC50: −log10 of the molar value. Where two headings read alike, the source gives them in different places.

What was measured:
[1] = test system: MDA-MB-231 cells; assay: IC50 in MDA-MB-231 monolayer cells; assay type: cell-based, human; details: Homo sapiens
[2] = test system: hASC monocellular spheroids; assay: Drug efficacy in hASC monocellular spheroids; assay type: cell-based, human; details: drug at IC50 of MDA-MB-231 monolayer cells, 2 days
Procedure: (§1) To form 3D multicellular tumor spheroids, cells was trypsinized and suspended in the growth media. Stromal cells and breast cancer cells were plated with a density of 5 × 10^3 cells /25 μL into 96‐well plate precoated with poly‐HEMA, respectively, resulting in 1 × 10^4 cells exist per each well. After seeding, the plate was centrifuged for 2 min at 1000 rpm to collect the cells in the center of the well. Fifty microliters of 10% Matrigel® Basement Membrane Matrix (Corning, NY, USA) solution diluted in media was gently added into the plate on ice to prevent matrigel from gelation. Monocellular spheroids were generated by a single culture of stromal cells or breast cancer cells. Cells were seeded with a density of 1 × 10^4 cells per well with 50 μL of 10% matrigel on a poly‐HEMA‐coated plate. Then, the plate with cells and matrigel was centrifuged at 1000 rpm for 2 min, and incubated for 48 h at 37°C with 5% CO2.

[3] = test system: MDA-MB-231 monocellular spheroids; assay: Drug efficacy in MDA-MB-231 monocellular spheroids; assay type: cell-based, human; details: drug at IC50 of MDA-MB-231 monolayer cells, 2 days
Procedure: as §1

[4] = test system: Multicellular spheroids with hASC and MDA-MB-231; assay: Permeability value (PV) in the 3D tumor model; details: PV = EffA:M - 1/2(EffASC + EffMDA), Equation (4)
Procedure: Therefore, we defined the permeability value (PV) of each drug as the difference in efficacy in multicellular and monocellular spheroids, as determined by Equation (4).
After treating the drug with spheroids for 2 days, the efficacy of the drug was evaluated by CellTiter‐Glo® 3D Cell Viability Assay (Promega). […] (4) PV=EffA:M−1/2EffASC+EffMDA.

[5] = test system: hASC-co-cultured spheroids (A:M); assay: Drug penetration (intrinsic fluorescence) in hASC-co-cultured tumor spheroids; assay type: cell-based, human; details: for Amount of drug inside the spheroids compared to other spheroids: 10 μM, 48 h, fluorescence microscopy, vs hBMSC- or hDF-co-cultured spheroids; for Amount of drug penetrating the spheroids, TIMP-1 silencing vs control siRNA: hASCs transfected with siTIMP-1, 48 h treatment
Procedure: (§2) We next tested whether ECM deposition on the surface of spheroids would affect the penetration of anticancer drugs and their efficacy. Three types of 3D multicellular tumor spheroids were formed and treated with 10 μM doxorubicin, epirubicin, or topotecan, which are chemotherapeutic agents for various tumors, including breast cancer, for an additional 48 h.
as §1
(§3) Spheroids were transferred to an opaque‐walled multiwall plate and analyzed by ATP‐based cell viability assays using Real Time‐Glo™ MT Cell Viability Assay (Promega, Madison, WI, USA) according to the manufacturer's protocol. […] Necrotic cells of spheroids were analyzed in Real Time‐Glo™ Annexin V Necrosis Assay (Promega) following the manufacturer's instructions. Luminescence was measured using a Glomax discovery multi Microplate Reader (Glomax discovery, Promega) with an integration time of 0.25–1.0 s per well.

[6] = test system: hBMSC-co-cultured spheroids (B:M); assay: Drug penetration (intrinsic fluorescence) in hBMSC-co-cultured tumor spheroids; assay type: cell-based, human; details: 10 μM, 48 h, fluorescence microscopy
Procedure: as §2, §1, §3

[7] = test system: hDF-co-cultured spheroids (F:M); assay: Drug penetration (intrinsic fluorescence) in hDF-co-cultured tumor spheroids; assay type: cell-based, human; details: 10 μM, 48 h, fluorescence microscopy
Procedure: as §2, §1, §3

[8] = test system: hASC-co-cultured spheroids (A:M); assay: Drug efficacy in multicellular tumor spheroids, Real Time-Glo MT Cell Viability Assay; assay type: cell-based, human; details: hASCs transfected with siTIMP-1, 48 h treatment
Procedure: as §3

[9] = test system: 3D multicellular tumor spheroids; assay: Necrosis in tumor spheroids, Real Time-Glo Annexin V Necrosis Assay; assay type: cell-based, human; details: A:M spheroids with control siRNA or siTIMP-1 hASCs
[10] = MDA-MB-231 monolayer cells, read-out: MDA-MB-231 IC50

Row | Structure (SMILES) | pIC50 ([1]; MDA-MB-231, read-out: MDA-MB-231 IC50) | hASC spheroid Efficacy (EffASC, %) [2] [%] | MDA spheroid Efficacy (EffMDA, %) [3] [%] | Experiment's PV #1 [4] | Experiment's PV #2 [4] | Experiment's PV #3 [4] | pIC50 [1, 10] | Amount of drug inside the spheroids compared to other spheroids [5] | Amount of drug penetrating the spheroids, TIMP-1 silencing vs control siRNA [5] | Distribution of drug inside the spheroids [6] | Distribution of drug inside the spheroids [7] | Drug efficacy, TIMP-1-silenced hASCs vs control [8] | Necrotic cells after drug treatment [9]
1 | COc1ccc(N(C)c2nc(C)nc3ccccc23)cc1 [Verubulin] | 8.00 | 24.939 | 5.173 | 0.039 | 0.029 | 0.085 | – | – | – | – | – | – | –
2 | CC[C@]1(O)C[C@@H]2CN(CCc3c([nH]c4ccccc34)[C@@](C(=O)OC)(c3cc4c(cc3OC)N(C)[C@H]3[C@@](O)(C(=O)OC)[C@H](OC(C)=O)[C@]5(CC)C=CCN6CC[C@]43[C@@H]65)C2)C1 [Vinblastine] | – | 25.299 | 9.274 | -0.060 | -0.020 | -0.100 | 5.74 | – | – | – | – | – | –
3 | CC[C@@]1(O)C(=O)OCc2c1cc1n(c2=O)Cc2cc3c([N+](=O)[O-])cccc3nc2-1 [Rubitecan] | – | 17.266 | 25.373 | – | – | – | 6.09 | – | – | – | – | – | –
4 | Cn1ncnc1[C@H]1c2n[nH]c(=O)c3cc(F)cc(c23)N[C@@H]1c1ccc(F)cc1 [Talazoparib] | – | 99.742 | 75.508 | 0.051 | 0.057 | 0.046 | 4.06 | – | – | – | – | – | –
5 | COc1cccc2c1C(=O)c1c(O)c3c(c(O)c1C2=O)C[C@@](O)(C(=O)CO)C[C@@H]3O[C@H]1C[C@H](N)[C@@H](O)[C@H](C)O1 [Epirubicin] | – | 45.548 | 23.696 | -0.096 | -0.017 | -0.056 | 5.80 | significant reduction | significantly increased | distributed throughout | distributed throughout | significantly increased | Few necrotic cells
6 | CCCCCOC(=O)Nc1nc(=O)n([C@@H]2O[C@H](C)[C@@H](O)[C@H]2O)cc1F [Capecitabine] | – | 99.895 | 99.873 | 0.000 | 0.001 | 0.000 | 4.02 | – | – | – | – | – | –
7 | CO[C@@]12[C@H](COC(N)=O)C3=C(C(=O)C(C)=C(N)C3=O)N1C[C@@H]1N[C@@H]12 [Mitomycin-c] | – | 64.309 | 53.401 | -0.071 | -0.097 | -0.045 | 4.76 | – | – | – | – | – | –
8 | CN(C)c1nc(N(C)C)nc(N(C)C)n1 [Altretamine] | – | 41.038 | 36.883 | 0.025 | 0.062 | -0.012 | 4.19 | – | – | – | – | – | –
9 | COc1cccc2c1C(=O)c1c(O)c3c(c(O)c1C2=O)C[C@@](O)(C(=O)CO)C[C@@H]3O[C@H]1C[C@H](N)[C@H](O)[C@H](C)O1 [Doxorubicin, doxorubicin] | – | – | – | – | – | – | – | significant reduction | significantly increased | distributed throughout | distributed throughout | significantly increased | Few necrotic cells
10 | COc1cc([C@@H]2c3cc4c(cc3[C@@H](O[C@@H]3O[C@@H]5CO[C@@H](C)O[C@H]5[C@H](O)[C@H]3O)[C@H]3COC(=O)[C@H]23)OCO4)cc(OC)c1O [Etoposide] | – | 73.263 | 64.897 | 0.029 | 0.043 | 0.016 | 4.49 | – | – | – | – | – | –
11 | CC(=O)O[C@H]1C(=O)[C@@]2(C)[C@H]([C@H](OC(=O)c3ccccc3)[C@]3(O)C[C@H](OC(=O)[C@H](O)[C@@H](NC(=O)c4ccccc4)c4ccccc4)C(C)=C1C3(C)C)[C@]1(OC(C)=O)CO[C@@H]1C[C@@H]2O [Paclitaxel] | – | 97.404 | 72.690 | -0.047 | -0.071 | -0.023 | 5.62 | – | – | – | – | – | –
12 | C/C(=C\c1csc(C)n1)[C@@H]1C[C@@H]2O[C@]2(C)CCC[C@H](C)[C@H](O)[C@@H](C)C(=O)C(C)(C)[C@@H](O)CC(=O)O1 [Patupilone, Patupilone (epothilone-b)] | – | 34.560 | 23.781 | -0.039 | -0.067 | -0.010 | 4.48 | – | – | – | – | – | –
13 | CC#C[C@]1(O)CC[C@H]2[C@@H]3CCC4=CC(=O)CCC4=C3[C@@H](c3ccc(N(C)C)cc3)C[C@@]21C [Mifepristone] | – | 91.524 | 46.672 | – | – | – | 4.81 | – | – | – | – | – | –
14 | CNCc1ccc(-c2[nH]c3cc(F)cc4c3c2CCNC4=O)cc1 [Rucaparib] | – | 99.818 | 92.185 | – | – | – | 4.14 | – | – | – | – | – | –
15 | CCc1c2c(nc3ccc(O)cc13)-c1cc3c(c(=O)n1C2)COC(=O)[C@]3(O)CC [SN38, 7-ethyl-10-hydroxycamptothecin] | – | 60.449 | 58.491 | 0.031 | 0.035 | 0.027 | 5.73 | – | – | – | – | – | –
16 | CC[C@@]1(O)C(=O)OCc2c1cc1n(c2=O)Cc2cc3c(CN(C)C)c(O)ccc3nc2-1 [topotecan] | – | – | – | – | – | – | – | significant reduction | significantly increased | distributed throughout | distributed throughout | significantly increased | Few necrotic cells
17 | COC(=O)[C@]12CCC(C)(C)C[C@H]1[C@H]1C(=O)C=C3[C@@]4(C)C=C(C#N)C(=O)C(C)(C)[C@@H]4CC[C@@]3(C)[C@]1(C)CC2 [Bardoxolone-methyl] | – | 38.156 | -35.997 | – | – | – | 5.67 | – | – | – | – | – | –
